Test results published in patent EP0745595A1, “3-(3-Aryloxyphenyl)-1-(substituted methyl)-s-triazine-2,4,6-oxo or thiotrione herbicidal agents” (American Cyanamid Company, priority 1995, dated 1996).

Legend:
Format in all cases: in vivo
[1] = tested on: ABUTILON THEOPHRASTI, MEDIC.; experiment: Postemergence herbicidal evaluation, ABUTH (Velvetleaf)
Method: (§1) In the tests, seedling plants are grown in jiffy flats for about two weeks. The test compounds are dispersed in 50/50 acetone/water mixtures containing 0.5% TWEEN®20, a polyoxyethylene sorbitan monolaurate surfactant of Atlas Chemical Industries, […] to the plants through a spray nozzle operating at 40 psi for a predetermined time. After spraying, the plants are placed on greenhouse benches and are cared for in the usual manner, commensurate with conventional greenhouse practices. From four to five weeks after treatment, the seedling plants are examined and rated according to the rating system set forth below. Where more than one test is involved for a given compound, the data are averaged.
(§2) Plant species employed in these evaluations are reported by header abbreviation, common name and scientific name.
(§3) Results of herbicide evaluation are expressed on a rating scale (0-9). The scale is based upon a visual observation of plant stand, vigor, malformation, size, chlorosis and overall plant appearance as compared with a control.

[2] = tested on: AMBROSIA ARTEMISIIFOLIA, L.; experiment: Postemergence herbicidal evaluation, AMBEL (Ragweed, Common)
Method: as §1, §2, §3

CASSIA OBTUSIFOLIA, L. = experiment: Postemergence herbicidal evaluation, CASOB (Sicklepod); parameters: key to CASOB rating / Herbicidal effect rating, CASOB / CASOB: 0-9 visual rating scale vs untreated control
Method: (§4) In the tests, seedling plants are grown in jiffy flats for about two weeks. The test compounds are dispersed in 50/50 acetone/water mixtures containing 0.5% TWEEN®20, a polyoxyethylene sorbitan monolaurate surfactant of Atlas Chemical Industries, in sufficient quantities to provide the equivalent of about 0.125 kg to 0.500 kg per hectare of active compound when applied to the plants through a spray nozzle operating at 40 psi for a predetermined time. After spraying, the plants are placed on greenhouse benches and are cared for in the usual manner, commensurate with conventional greenhouse practices. From four to five weeks after treatment, the seedling plants are examined and rated according to the rating system set forth below. Where more than one test is involved for a given compound, the data are averaged.
as §2, §3

CHENOPODIUM ALBUM, L. [3] = experiment: Postemergence herbicidal evaluation, CHEAL (Lambsquarters, Common)
Method: as §1, §2, §3

IPOMOEA SPP. = experiment: Postemergence herbicidal evaluation, IPOSS (Morningglory spp.)
Method: as §1, §2, §3

GALIUM APARINE = experiment: Postemergence herbicidal evaluation, GALAP (Galium); parameters: key to GALAP rating / Herbicidal effect rating, GALAP / GALAP: 0-9 visual rating scale vs untreated control
Method: as §4, §2, §3

[4] = tested on: ECHINOCHLOA CRUS-GALLI, (L) BEAU; experiment: Postemergence herbicidal evaluation, ECHCG (Barnyardgrass); parameters: key to ECHCG rating / Herbicidal effect rating, ECHCG / ECHCG: 0-9 visual rating scale vs untreated control
Method: as §4, §2, §3

[5] = tested on: SETARIA VIRIDIS, (L) BEAU; experiment: Postemergence herbicidal evaluation, SETVI (Foxtail, Green); parameters: key to SETVI rating / Herbicidal effect rating, SETVI / SETVI: 0-9 visual rating scale vs untreated control
Method: as §4, §2, §3

[6] = tested on: GLYCINE MAX(L) MERR. CV. WILLIAMS; experiment: Postemergence herbicidal evaluation, GLXMAW (Soybean, Williams); parameters: key to GLXMAW rating / Herbicidal effect rating, GLXMAW / GLXMAW: 0-9 visual rating scale vs untreated control
Method: as §4, §2, §3

[7] = tested on: ORYZA SATIVA, L. TEBONNET; experiment: Postemergence herbicidal evaluation, ORYSAT (Rice, Tebonnet); parameters: key: 0-9 visual rating scale vs untreated control
Method: as §4, §2, §3

[8] = tested on: TRITICUM AESTIVUM, CV. APOLLO; experiment: Postemergence herbicidal evaluation, TRZAWO (Wheat, Winter, CV. APOLLO)
Method: In the tests, seedling plants are grown in jiffy flats for about two weeks. The test compounds are dispersed in 50/50 acetone/water mixtures containing 0.5% TWEEN®20, a polyoxyethylene sorbitan monolaurate surfactant of Atlas Chemical Industries, […] through a spray nozzle operating at 40 psi for a predetermined time. After spraying, the plants are placed on greenhouse benches and are cared for in the usual manner, commensurate with conventional greenhouse practices. From four to five weeks after treatment, the seedling plants are examined and rated according to the rating system set forth below. Where more than one test is involved for a given compound, the data are averaged.
as §2, §3

ZEA MAYS L. = experiment: Postemergence herbicidal evaluation, ZEAMX (Corn, Field)
Method: as §1, §2, §3

CHENOPODIUM ALBUM, L. [9] = experiment: Preemergence herbicidal evaluation, CHEAL (Lambsquarters, Common);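 note: higher means more injury with 8 approaching complete kill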
From the text: as §3
The preemergence herbicidal activity of the test compounds of the present invention is exemplified by the following tests in which the seeds of a variety of monocotyledonous and dicotyledonous plants are separately mixed with potting soil and planted on top of approximately one inch of soil in separate pint cups. […] The treated cups are then placed on greenhouse benches, watered and cared for in accordance with conventional greenhouse procedures. From four to five weeks after treatment, the tests are terminated and each cup is examined and rated according to the rating system provided in Example 40.
The compounds evaluated are reported by compound number given in Example 40.

[10] = tested on: ORYZA SATIVA, L. TEBONNET; experiment: Rice tolerance to post-transplant applications under flooded paddy conditions, ORYSAT (Rice, Tebonnet); details: post-transplanted rice
Method: as §3
The tolerance of transplanted rice to post-transplanted herbicide applications is determined as follows: two ten-day-old rice seedlings (CV. Tebonnet) are transplanted into a silt loam soil in 32 oz. plastic containers with a diameter of 10.5 cm and no drainage holes. After transplanting the containers are flooded and the water level is maintained at 1.5 to 3 cm above the soil surface. […] The treated containers are placed on greenhouse benches, watered such that the water level is maintained as stated above, and cared for according to normal greenhouse procedures. Three to four weeks after treatment the test is terminated and each container is examined and herbicidal effect rated according to the rating system provided in Example 40. The compounds evaluated are reported by compound number given in Example 40.
Plant species employed in this example are reported by header abbreviation, common name and scientific name.

## Cn1c(=O)[nH]c(=O)n(-c2cc(Oc3ccc(C(F)(F)F)cc3Cl)ccc2[N+](=O)[O-])c1=O [B, reference compound]
[1]; 0.031 kg/ha
  Herbicidal effect rating, ABUTH: 4.5
[1]; 0.063 kg/ha
  Herbicidal effect rating, ABUTH: 7.0
[1]; 0.125 kg/ha
  Herbicidal effect rating, ABUTH: 7.0
[1]; 0.250 kg/ha
  Herbicidal effect rating, ABUTH: 9.0
[2]; 0.031 kg/ha
  Herbicidal effect rating, AMBEL: 3.0
[2]; 0.063 kg/ha
  Herbicidal effect rating, AMBEL: 4.5
[2]; 0.125 kg/ha
  Herbicidal effect rating, AMBEL: 8.0
[2]; 0.250 kg/ha
  Herbicidal effect rating, AMBEL: 7.0
CASSIA OBTUSIFOLIA, L.; 0.031 kg/ha
  Herbicidal effect rating, CASOB: 3.5
CASSIA OBTUSIFOLIA, L.; 0.063 kg/ha
  Herbicidal effect rating, CASOB: 4.0
CASSIA OBTUSIFOLIA, L.; 0.125 kg/ha
  Herbicidal effect rating, CASOB: 8.0
CASSIA OBTUSIFOLIA, L.; 0.250 kg/ha
  Herbicidal effect rating, CASOB: 5.5
CHENOPODIUM ALBUM, L. [3]; 0.031 kg/ha
  Herbicidal effect rating, CHEAL: 2.0
CHENOPODIUM ALBUM, L. [3]; 0.063 kg/ha
  Herbicidal effect rating, CHEAL: 2.5
CHENOPODIUM ALBUM, L. [3]; 0.125 kg/ha
  Herbicidal effect rating, CHEAL: 7.0
CHENOPODIUM ALBUM, L. [3]; 0.250 kg/ha
  Herbicidal effect rating, CHEAL: 4.5
IPOMOEA SPP.; 0.031 kg/ha
  Herbicidal effect rating, IPOSS: 8.0
IPOMOEA SPP.; 0.063 kg/ha
  Herbicidal effect rating, IPOSS: 9.0
IPOMOEA SPP.; 0.125 kg/ha
  Herbicidal effect rating, IPOSS: 8.0
IPOMOEA SPP.; 0.250 kg/ha
  Herbicidal effect rating, IPOSS: 9.0
GALIUM APARINE; 0.031 kg/ha
  Herbicidal effect rating, GALAP: 2.0
GALIUM APARINE; 0.063 kg/ha
  Herbicidal effect rating, GALAP: 2.5
GALIUM APARINE; 0.125 kg/ha
  Herbicidal effect rating, GALAP: 7.0
GALIUM APARINE; 0.250 kg/ha
  Herbicidal effect rating, GALAP: 4.5
[4]; 0.031 kg/ha
  Herbicidal effect rating, ECHCG: 1.0
[4]; 0.063 kg/ha
  Herbicidal effect rating, ECHCG: 2.0
[4]; 0.125 kg/ha
  Herbicidal effect rating, ECHCG: 3.0
[4]; 0.250 kg/ha
  Herbicidal effect rating, ECHCG: 3.5
[5]; 0.031 kg/ha
  Herbicidal effect rating, SETVI: 0.5
[5]; 0.063 kg/ha
  Herbicidal effect rating, SETVI: 1.0
[5]; 0.125 kg/ha
  Herbicidal effect rating, SETVI: 0.0
[5]; 0.250 kg/ha
  Herbicidal effect rating, SETVI: 2.0
[6]; 0.031 kg/ha
  Herbicidal effect rating, GLXMAW: 3.3
[6]; 0.063 kg/ha
  Herbicidal effect rating, GLXMAW: 4.0
[6]; 0.125 kg/ha
  Herbicidal effect rating, GLXMAW: 4.0
[6]; 0.250 kg/ha
  Herbicidal effect rating, GLXMAW: 4.3
[7]; 0.031 kg/ha
  Herbicidal effect rating, ORYSAT: 4.0
[7]; 0.063 kg/ha
  Herbicidal effect rating, ORYSAT: 4.5
[7]; 0.125 kg/ha
  Herbicidal effect rating, ORYSAT: 5.5
[7]; 0.250 kg/ha
  Herbicidal effect rating, ORYSAT: 5.0
[8]; 0.031 kg/ha
  Herbicidal effect rating, TRZAWO: 3.0
[8]; 0.063 kg/ha
  Herbicidal effect rating, TRZAWO: 3.0
[8]; 0.125 kg/ha
  Herbicidal effect rating, TRZAWO: 4.0
[8]; 0.250 kg/ha
  Herbicidal effect rating, TRZAWO: 4.3
ZEA MAYS L.; 0.031 kg/ha
  Herbicidal effect rating, ZEAMX: 3.3
ZEA MAYS L.; 0.063 kg/ha
  Herbicidal effect rating, ZEAMX: 3.3
ZEA MAYS L.; 0.125 kg/ha
  Herbicidal effect rating, ZEAMX: 4.5
ZEA MAYS L.; 0.250 kg/ha
  Herbicidal effect rating, ZEAMX: 4.3
CHENOPODIUM ALBUM, L. [9]; Rate 0.031 kg/ha
  CHEAL: 4.5
CHENOPODIUM ALBUM, L. [9]; Rate 0.063 kg/ha
  CHEAL: 4.5
CHENOPODIUM ALBUM, L. [9]; Rate 0.125 kg/ha
  CHEAL: 4.5
CHENOPODIUM ALBUM, L. [9]; Rate 0.250 kg/ha
  CHEAL: 4.5
[10]; Rate 0.031 kg/ha
  ORYSAT: 2.0
[10]; Rate 0.063 kg/ha
  ORYSAT: 3.0
[10]; Rate 0.125 kg/ha
  ORYSAT: 2.5
[10]; Rate 0.250 kg/ha
  ORYSAT: 4.5
